From patent US20100179188A1, “NITROXIDE RADICAL AS TREATMENT FOR NEURODEGENERATION” (Office of Technology Transfer, NIH, priority 2007, published 2010)

Legend:
ferritin = assay: Immunohistochemistry of ferritin in hippocampus and cortex; type: in vivo; conditions: hippocampus and cortex of IRP2−/− mice
Method: (§1) Diet: The mice were weaned 3-4 weeks after their birth. Immediately after weaning, mice were maintained on either a Tempo1-supplemented or control diet. In the Tempo1-supplemented diet, powdered Tempo1 was uniformly mixed with bacon-flavored mouse chow by a “cold press” technique (Bio-Serv, Frenchtown, N.J., USA) at a concentration of 10 mg/g of food. Bacon-flavored chow without Tempo1 was used as the control diet.
Immunohistochemistry: Paraffin-embedded tissue sections were boiled in a micro oven for 15 min for antigen retrieval in 10 mM citrate buffer pH 6.4 after dewaxing and rehydrating. The sections were blocked in blocking buffer (Tris-buffered saline pH 7.4, 5% nomial goat serum, 0.1% Tween-20) for 30 min, then were incubated with polyclonal rabbit anti-ferritin antibody for 2 h at room temperature, the protein-antibody complex was labeled by CY3-donkey anti-rabbit antibody (Jackson ImmunoResearch Laboratories, Inc., West Grove, Pa.), nuclei were labeled by DAPI as counterstaining. The slides were observed and the pictures were recorded with Nikon Eclipse E600 fluorescence microscope.
Immunohistochemical studies were performed to analyze ferritin expression in the hippocampus and cortexregions of the mouse brains. […] The overexpression of ferritin decreased with Tempo1 treatment.

cytosolic aconitase = target: T1, cytosolic aconitase (Mus musculus, UniProt P28271); assay: In-gel aconitase assay in mouse embryonic fibroblast lysates, cytosolic aconitase; type: cell-based
T1 construct: Embryonic fibroblasts of 13-day old embryos were isolated from wild type, IRP1−/− mice and IRP2−/− mice; endogenous in cells; host or cells: mouse embryonic fibroblasts (wild type and IRP2−/−)
T1 sequence (P28271 1-889): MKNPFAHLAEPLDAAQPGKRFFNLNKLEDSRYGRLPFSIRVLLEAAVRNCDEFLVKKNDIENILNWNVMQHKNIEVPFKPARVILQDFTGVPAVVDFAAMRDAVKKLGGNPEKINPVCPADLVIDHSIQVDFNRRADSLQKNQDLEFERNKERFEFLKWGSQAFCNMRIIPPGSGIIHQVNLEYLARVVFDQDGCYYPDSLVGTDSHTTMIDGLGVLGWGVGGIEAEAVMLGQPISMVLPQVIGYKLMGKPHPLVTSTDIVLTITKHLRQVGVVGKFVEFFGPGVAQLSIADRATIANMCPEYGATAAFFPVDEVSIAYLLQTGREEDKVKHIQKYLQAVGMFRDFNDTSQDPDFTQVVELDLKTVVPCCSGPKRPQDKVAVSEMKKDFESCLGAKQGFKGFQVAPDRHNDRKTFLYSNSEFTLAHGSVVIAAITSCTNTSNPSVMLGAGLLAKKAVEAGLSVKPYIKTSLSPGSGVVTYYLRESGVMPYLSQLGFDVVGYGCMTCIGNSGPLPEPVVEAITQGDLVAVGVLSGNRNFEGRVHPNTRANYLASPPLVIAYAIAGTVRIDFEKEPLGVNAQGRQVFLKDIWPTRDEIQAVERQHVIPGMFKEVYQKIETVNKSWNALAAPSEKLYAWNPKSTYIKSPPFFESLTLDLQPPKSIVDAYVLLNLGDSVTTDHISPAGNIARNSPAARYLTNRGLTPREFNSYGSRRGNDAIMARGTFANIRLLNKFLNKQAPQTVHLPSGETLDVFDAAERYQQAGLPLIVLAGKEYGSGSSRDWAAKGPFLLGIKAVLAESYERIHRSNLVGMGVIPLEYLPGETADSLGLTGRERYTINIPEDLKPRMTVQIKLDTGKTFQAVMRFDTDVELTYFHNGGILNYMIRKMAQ
Method: Cells: Embryonic fibroblasts of 13-day old embryos were isolated from wild type, IRP1−/− mice and IRP2−/− mice as described in LaVaute et al. supra. Myc-tagged HEK 293 Tet-on cell line, in which IRP2 expression was inducible, was prepared and cultured as described Bourdon et al., Blood Cells Mol Dis, 31, 247-255 (2003). Erythroblasts were harvested from bone marrow and purified as described in Cooperman et al., Blood, 106, 1084-1091 (2005).
Aconitase assay: Aconitase activity gels for human lysates were performed as described in Tong et al., infra, and aconitase activity gels for mouse lysate were performed with the following modifications. The gel was composed of a separating gel containing 6% acrylamide, 132 mM Tris base, 66 mM borate, 3.6 mM citrate, and a stacking gel containing 4% acrylamide, 66 mM Tris base, 33 mM borate, 3.6 mM citrate. The running buffer contains 25 mM Tris pH 8.3, 96 mM glycine, and 3.6 mM citrate. Electrophoresis were carried out at 170 V at 4° C. Spectral aconitase activity was measured by following the method of Fillebeen et al., infra, using cis-aconitate as the substrate.
To confirm that nitroxide radicals activate IRP1 binding by disassembly of the iron-sulfur cluster, we performed in-gel aconitase assays to determine whether Tempo1 decreased the activity of cytosolic aconitase. […] The band that represented the cytosolic aconitase was readily identified by its absence in lysates from IRP1−/− cells. […]
To determine whether the effect of Tempo1 on IRP1 activity was kinetically consistent with oxidative disassembly of the iron sulfur cluster, the effect of Tempo1 on aconitase activity was compared to that of the iron chelator, deferiprone (DFO), which activates IRE-binding activity of IRP1 by limiting de novo synthesis and repair of the iron sulfur cluster in IRP1. […] Recovery of aconitase activity was assessed in wild type and IRP2−/− cells.

IRP2−/− mice = assay: Hematocrit (anemia) of IRP2−/− mice on Tempo1 diet; type: in vivo
Method: as §1

Structure (SMILES): CC1(C)CC(O)CC(C)(C)N1[O] [Tempo1]
- overexpression of ferritin (ferritin): decreased
- activity of cytosolic aconitase (cytosolic aconitase; lysates from WT and IRP2−/− embryonic fibroblasts): diminished
- time to reversal of the loss of cytosolic aconitase activity after removal (cytosolic aconitase; mouse embryonic fibroblasts, 16 hours treatment, then fresh unsupplemented media): ≤ 2 h
- hematocrit (IRP2−/− mice; IRP2−/− mice after 8 months of Tempo1 diet (untreated IRP2−/− 46±5, WT 52±2)): 46±4
- mild anemia of IRP2−/− mice (IRP2−/− mice; IRP2−/− mice treated with Tempo1): did not improve
